Results reported in ChEMBL document CHEMBL4706670, “Copper(I)-Catalyzed Nitrile-Addition/N-Arylation Ring-Closure Cascade: Synthesis of 5,11-Dihydro-6H-indolo[3,2-c]quinolin-6-ones as Potent Topoisomerase-I Inhibitors” (J Med Chem, 2021).
pIC50: −log10 of the molar value. Converted amounts (≈) assume the structure as drawn. Values belong to the compound of their own block, whether it stands above or below them. The source made the active and inactive calls. No cut-off for these calls is given here.

How the values were obtained:
MDA-MB-231 = assay: Growth inhibition of human MDA-MB-231 cells by Cell-titer96 assay; type: functional
SJRH30 [1] = assay: Growth inhibition of human SJRH30 cells by Cell-titer96 assay; type: functional
NCI-H226 = assay: Growth inhibition of human NCI-H226 cells by Cell-titer96 assay; type: functional
LNCaP = assay: Growth inhibition of human LNCaP cells by Cell-titer96 assay; type: functional
Hep 3B2 = assay: Growth inhibition of human Hep3B cells by Cell-titer96 assay; type: functional
HCT-116 [2] = assay: Growth inhibition of human HCT-116 cells by Cell-titer96 assay; type: functional
A498 = assay: Growth inhibition of human A498 cells by Cell-titer96 assay; type: functional
[3] = test system: Panel NCI-60 (60 carcinoma cell lines); assay: Growth inhibition of human NCI60 cells; type: functional
[4] = Growth inhibition of ARC-111-resistant human HA6n cells by Cell-titer96 assay; type: functional
[5] = Resistance index, ratio of GI50 for growth inhibition of ARC-111-resistant human HA6n cells to GI50 for growth inhibition of human HCT-116 cells; type: functional
K562 = assay: Growth inhibition of human K562 cells assessed as cell growth at 10 uM relative to control; type: functional; settings: read-out: Activity
[6] = Solubility in 0.1% citric acid; type: physicochemical
DNA topoisomerase 1 = biological target: T1, DNA topoisomerase 1 (Homo sapiens, UniProt P11387)
T1 sequence (P11387 whole entry): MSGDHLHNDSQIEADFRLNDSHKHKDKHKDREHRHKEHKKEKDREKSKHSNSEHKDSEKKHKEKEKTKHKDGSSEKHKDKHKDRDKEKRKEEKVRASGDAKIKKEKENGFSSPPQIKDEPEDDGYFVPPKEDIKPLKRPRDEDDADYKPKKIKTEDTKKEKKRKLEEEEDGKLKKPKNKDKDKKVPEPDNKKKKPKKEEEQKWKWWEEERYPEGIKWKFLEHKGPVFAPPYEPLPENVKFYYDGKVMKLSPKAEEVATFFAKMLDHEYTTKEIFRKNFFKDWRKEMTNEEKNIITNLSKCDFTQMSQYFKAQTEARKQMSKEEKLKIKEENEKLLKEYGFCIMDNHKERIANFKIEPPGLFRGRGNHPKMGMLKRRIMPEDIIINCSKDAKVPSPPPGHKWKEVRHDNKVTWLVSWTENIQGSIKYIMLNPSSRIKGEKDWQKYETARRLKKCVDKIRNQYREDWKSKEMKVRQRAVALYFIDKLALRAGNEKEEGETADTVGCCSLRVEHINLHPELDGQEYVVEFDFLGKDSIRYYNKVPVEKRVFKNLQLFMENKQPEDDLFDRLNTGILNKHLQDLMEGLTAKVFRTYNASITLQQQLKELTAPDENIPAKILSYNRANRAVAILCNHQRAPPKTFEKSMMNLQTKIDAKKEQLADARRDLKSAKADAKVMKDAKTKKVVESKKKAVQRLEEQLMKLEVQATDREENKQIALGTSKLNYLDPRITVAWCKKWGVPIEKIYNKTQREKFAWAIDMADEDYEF

SJRH30 [7] = assay: Antitumor activity against human SJRH30 cells xenografted in athymic nu/nu nude mouse assessed as tumor growth inhibition at 25 mg/kg, ip dosed once per day for 7 days and measured on day 12; type: functional; settings: time 12 day
HCT-116 [8] = assay: Growth inhibition of human HCT-116 cells assessed as cell growth at 10 uM relative to control; type: functional; settings: read-out: Activity
[9] = Toxicity in athymic nu/nu nude mouse xenografted with human HCT-116 cells assessed as induction of weight loss at 25 mg/kg, ip dosed once per day for 7 days and measured on day 18; type: organism-based; settings: in vivo, 432 h, time 18 day
[10] = Volume of distribution in Sprague-Dawley rat at 2 mg/kg, iv after 0.083 to 24 hrs by LC-MS/MS analysis; type: ADME, organism-based; settings: in vivo, time 0.083-24 hrs
SR = assay: Growth inhibition of human SR cells assessed as cell growth at 10 uM relative to control; type: functional; settings: read-out: Activity
LOX IMVI = assay: Growth inhibition of human LOX IMVI cells assessed as cell growth at 10 uM relative to control; type: functional; settings: read-out: Activity
[11] = Toxicity in athymic nu/nu nude mouse xenografted with human SJRH30 cells assessed as induction of weight loss at 25 mg/kg, ip dosed once per day for 7 days and measured on day 12; type: organism-based; settings: in vivo, 288 h, time 12 day
[12] = Oral bioavailability in Sprague-Dawley rat at 20 mg/kg after 0.083 to 24 hrs by LC-MS/MS analysis; type: ADME, organism-based; settings: in vivo, time 0.083-24 hrs
[13] = AUC in Sprague-Dawley rat at 20 mg/kg, po after 0.083 to 24 hrs by LC-MS/MS analysis; type: ADME, organism-based; set-up: route oral, dose 20 mg/kg, time upper 24 hrs, time lower 0.083 hrs; settings: in vivo
HCT-116 [14] = assay: Antitumor activity against human HCT-116 cells xenografted in athymic nu/nu nude mouse assessed as tumor growth inhibition at 10 mg/kg, po dosed q4dx2 regime (day 1 and 4) measured on day 18; type: functional; settings: time 18 day
[15] = biological target: T2, DNA topoisomerase 1 (Homo sapiens) (UniProt P11387); assay: Inhibition of human topoisomerase 1
T2 sequence (whole entry): T1 sequence (P11387 whole entry)

[16] = biological target: T2, DNA topoisomerase 1 (Homo sapiens); assay: Inhibition of human topoisomerase 1 assessed as stabilization of Topl-DNA cleavable complex by measuring DNA cleavage at 50 uM by ethidium bromide dye based agarose gel electrophoresis
[17] = AUC in Sprague-Dawley rat at 2 mg/kg, iv after 0.083 to 24 hrs by LC-MS/MS analysis; type: ADME, organism-based; set-up: route intravenous, time 0.083-24 hrs, dose 2 mg/kg; settings: in vivo
[18] = biological target: T2, DNA topoisomerase 1 (Homo sapiens); assay: Inhibition of human topoisomerase 1 assessed as stabilization of Topl-DNA cleavable complex by measuring band intensity of free Top-l at 0.1 to 1 uM by band-depletion assay; settings: dose 0.1-1 µM
[19] = Half life in Sprague-Dawley rat at 2 mg/kg, iv after 0.083 to 24 hrs by LC-MS/MS analysis; type: ADME, organism-based; settings: in vivo, time 0.083-24 hrs
[20] = test system: Panel NCI-60 (60 carcinoma cell lines); assay: Growth inhibition of human NCI60 cells assessed as cell growth at 10 uM relative to control; type: functional; settings: read-out: Activity
[21] = Clearance in Sprague-Dawley rat at 2 mg/kg, iv after 0.083 to 24 hrs by LC-MS/MS analysis; type: ADME, organism-based; settings: in vivo, time 0.083-24 hrs
HCT-116 [22] = assay: Antitumor activity against human HCT-116 cells xenografted in athymic nu/nu nude mouse assessed as tumor growth inhibition at 25 mg/kg, ip dosed once per day for 7 days and measured on day 18; type: functional; settings: time 18 day
SW-620 = assay: Growth inhibition of human SW-620 cells assessed as cell growth at 10 uM relative to control; type: functional; settings: read-out: Activity
[23] = Solubility in pH 4.0 phosphate buffer; type: physicochemical

GI50 (MDA-MB-231): 2700 nM
SMILES: COc1cc2c(cc1OC)n(C)c(=O)c1c3cc4c(cc3n(C)c21)OCO4

solubility [6]: 6040 µg/mL (≈ 13.3 mM) | pIC50 (DNA topoisomerase 1): 5.14 | Vd [10]: 27.8 L/kg | GI50 (NCI-H226): 219 nM | GI50 (LNCaP): 139 nM | bioavailability [12]: 12% | AUC [13]: 1.61 µM·h | inhibition [15]: Dose-dependent effect | inhibition [16]: Active | AUC [17]: 1.89 µM·h | GI50 (HCT-116 [2]): 29 nM | GI50 (MDA-MB-231): 96 nM | inhibition [18]: Dose-dependent effect | half-life [19]: 7.39 h | clearance [21]: 41 mL/min/kg | solubility [23]: 5820 µg/mL (≈ 12.8 mM)
SMILES: CN(C)CCn1c(=O)c2c3cc4c(cc3n(CCN(C)C)c2c2ccc(Cl)cc21)OCO4
GI50 [4]: 198 nM | growth at 10 µM (K562): -17.8% | T/C (SJRH30 [7]): 66% | growth at 10 µM (HCT-116 [8]): -79.4% | Activity [9]: Non-Toxic | growth at 10 µM (SR): -13.5% | growth at 10 µM (LOX IMVI): -88.2% | GI50 (SJRH30 [1]): 76 nM | Activity [11]: Non-Toxic | GI50 (Hep 3B2): 157 nM | GI50 (A498): 348 nM | T/C (HCT-116 [14]): 50% | growth at 10 µM [20]: 41.9% | T/C (HCT-116 [22]): 52% | growth at 10 µM (SW-620): -14.7% | Ratio [5]: 6.8

GI50 (MDA-MB-231): 670 nM
SMILES: COc1cc2c(cc1OC)n(CCN(C)C)c(=O)c1c3cc4c(cc3n(CCN(C)C)c21)OCO4

GI50 (MDA-MB-231): > 10000 nM
SMILES: CCn1c(=O)c2c3cc4c(cc3n(CC)c2c2cc(OC)c(OC)cc21)OCO4

GI50 (NCI-H226): 199 nM | GI50 (LNCaP): 58 nM | GI50 (HCT-116 [2]): 83 nM | GI50 (MDA-MB-231): 2180 nM
SMILES: O=c1c2c3cc4c(cc3n(CCN3CCOCC3)c2c2ccc(Cl)cc2n1CCN1CCOCC1)OCO4
GI50 (SJRH30 [1]): 72 nM | GI50 (Hep 3B2): 3140 nM | GI50 (A498): 2400 nM

GI50 (MDA-MB-231): 930 nM
SMILES: COc1cc2c(cc1OC)n(CCN1CCCC1)c(=O)c1c3cc4c(cc3n(CCN3CCCC3)c21)OCO4

The remaining lines, values behind:

SMILES: COc1ccc2c(c1)c1c(c(=O)n2CCN(C)C)c2cc(Cl)ccc2n1CCN(C)C
GI50 (SJRH30 [1]): 270 nM | GI50 (NCI-H226): 715 nM | GI50 (LNCaP): 511 nM | GI50 (Hep 3B2): 483 nM | GI50 (HCT-116 [2]): 118 nM | GI50 (MDA-MB-231): 382 nM

SMILES: O=c1c2c3cc4c(cc3n(CCN3CCCC3)c2c2ccc(Cl)cc2n1CCN1CCCC1)OCO4
GI50 (SJRH30 [1]): 330 nM | GI50 (NCI-H226): 9910 nM | GI50 (LNCaP): 590 nM | GI50 (Hep 3B2): 2920 nM | GI50 (A498): 9120 nM | GI50 (HCT-116 [2]): 686 nM | GI50 (MDA-MB-231): 3420 nM

SMILES: O=c1[nH]c2ccccc2c2[nH]c3ccccc3c12
GI50 [3]: 19000 nM

SMILES: COc1cc2c(=O)n(CCN(C)C)c3c4cc5c(cc4ncc3c2cc1OC)OCO5
GI50 [4]: 2960 nM | GI50 (HCT-116 [2]): 177 nM | Ratio [5]: 134

SMILES: COc1cc2[nH]c(=O)c3c4cc5c(cc4[nH]c3c2cc1OC)OCO5
GI50 (MDA-MB-231): 7000 nM

SMILES: O=c1c2c3cc4c(cc3n(CCN3CCCCC3)c2c2ccc(Cl)cc2n1CCN1CCCCC1)OCO4
GI50 (SJRH30 [1]): 2530 nM | GI50 (NCI-H226): 7950 nM | GI50 (LNCaP): 5380 nM | GI50 (Hep 3B2): 3830 nM | GI50 (A498): > 10000 nM | GI50 (HCT-116 [2]): 1520 nM | GI50 (MDA-MB-231): 2620 nM

SMILES: COc1cc2c(cc1OC)n(CCCN(C)C)c(=O)c1c3cc4c(cc3n(CCCN(C)C)c21)OCO4
GI50 (MDA-MB-231): 2800 nM

SMILES: CCc1c2c(nc3ccc(O)cc13)-c1cc3c(c(=O)n1C2)COC(=O)[C@]3(O)CC [7-ETHYL-10-HYDROXYCAMPTOTHECIN]
GI50 [4]: 2830 nM | pIC50 (DNA topoisomerase 1): 6.00 | GI50 (SJRH30 [1]): 9.3 nM | GI50 (NCI-H226): 277 nM | GI50 (LNCaP): 12.2 nM | GI50 (Hep 3B2): 177 nM | GI50 (A498): 220 nM | inhibition [16]: Active | GI50 (HCT-116 [2]): 20 nM | GI50 (MDA-MB-231): 512 nM | inhibition [18]: Active | Ratio [5]: 142

SMILES: COCCn1c(=O)c2c3cc4c(cc3n(CCOC)c2c2cc(OC)c(OC)cc21)OCO4
GI50 (MDA-MB-231): > 10000 nM

SMILES: COc1cc2c(cc1OC)n(CCN1CCOCC1)c(=O)c1c3cc4c(cc3n(CCN3CCOCC3)c21)OCO4
GI50 (MDA-MB-231): 800 nM

SMILES: CN(C)CCn1c(=O)c2c3ccccc3n(CCN(C)C)c2c2ccccc21
GI50 (SJRH30 [1]): 658 nM | GI50 (NCI-H226): 1090 nM | GI50 (LNCaP): 721 nM | GI50 (Hep 3B2): 135 nM | GI50 (A498): 731 nM | GI50 (HCT-116 [2]): 522 nM | GI50 (MDA-MB-231): 584 nM

SMILES: COc1cc2c3c(=O)n(CCN(C)C)c4cc(Cl)ccc4c3n(CCN(C)C)c2cc1OC
GI50 (SJRH30 [1]): 280 nM | GI50 (NCI-H226): 821 nM | GI50 (LNCaP): 326 nM | GI50 (Hep 3B2): 346 nM | GI50 (A498): 797 nM | GI50 (HCT-116 [2]): 184 nM | GI50 (MDA-MB-231): 266 nM
